Data taken from patent EP4603105A1, “PHARMACEUTICAL COMPOSITION CONTAINING CYCLIC COMPOUND HAVING SELECTIVE KRAS INHIBITORY EFFECT AGAINST HRAS AND NRAS” (CHUGAI SEIYAKU KABUSHIKI KAISHA, priority 2022, dated 2024).
Like-named read-outs stand apart in the source and are kept apart here. Where a SMILES comes first, the peptide text is derived from it. Bridges are numbered along the chain shown (N, C = ends). [ ]: non-standard residue; d: D form. The star is where a group is joined. hPhe(3-Cl-4-CF3) = N[C@@H](CCc1ccc(C(F)(F)F)c(Cl)c1)C(=O)O; NPrPhe(4-CF3) = CCCN[C@@H](Cc1ccc(C(F)(F)F)cc1)C(=O)O; NMeGly(cPent) = CN[C@H](C(=O)O)C1CCCC1; NMeD = CN[C@@H](CC(=O)O)C(=O)O; NMeL = CN[C@@H](CC(C)C)C(=O)O; Morpholide = C1CN(*)CCO1; NMeA = CN[C@@H](C)C(=O)O; Ac5c = NC1(C(=O)O)CCCC1; Ac4c = NC1(C(=O)O)CCC1; Sar = CNCC(=O)O

Experiments:
HRAS wild-type protein = HRAS wild-type protein (Homo sapiens, UniProt P01112); assay: Binding to HRAS by surface plasmon resonance (SPR), KD and KD ratio to KRAS
How it was run: (§1)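 Affinity is measured by surface plasmon resonance at 30°C against captured, GDP-loaded RAS carrying a biotinylated Avi tag. Compounds are titrated by single-cycle kinetics, and KD comes from a 1:1 fit.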

[1] = molecular target: GDP-bound NRAS wild-type protein (Homo sapiens, UniProt P01111); assay: Binding to NRAS by surface plasmon resonance (SPR), KD and KD ratio to KRAS
How it was run: as §1

[2] = system: human lung cancer strain NCI-H441; assay type: cell-based
How it was run: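 Readout: […] after the ATP-based reagent. Compound: serial dilutions in dimethyl sulfoxide.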

[3] = ratio of KD for HRAS wild-type protein to KD for KRAS
[4] = ratio of KD for GDP-bound NRAS wild-type protein to KD for KRAS
[5] = ratio of KD value for HRAS wild-type protein to KD value for KRAS (SPR)
[6] = ratio of KD value for GDP-bound NRAS wild-type protein to KD value for KRAS (SPR)
[7] = ratio of the KD value with respect to HRAS wild-type protein to the KD value with respect to KRAS
[8] = ratio of the KD value with respect to GDP-bound NRAS wild-type protein to the KD value with respect to KRAS

GDP-bound NRAS wild-type protein, sequence (P01111 whole entry): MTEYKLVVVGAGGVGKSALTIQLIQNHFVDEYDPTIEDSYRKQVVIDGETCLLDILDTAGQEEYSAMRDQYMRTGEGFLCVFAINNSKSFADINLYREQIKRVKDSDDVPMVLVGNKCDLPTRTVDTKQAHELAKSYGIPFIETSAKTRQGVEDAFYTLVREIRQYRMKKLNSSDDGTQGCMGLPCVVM
HRAS wild-type protein, sequence (P01112 whole entry): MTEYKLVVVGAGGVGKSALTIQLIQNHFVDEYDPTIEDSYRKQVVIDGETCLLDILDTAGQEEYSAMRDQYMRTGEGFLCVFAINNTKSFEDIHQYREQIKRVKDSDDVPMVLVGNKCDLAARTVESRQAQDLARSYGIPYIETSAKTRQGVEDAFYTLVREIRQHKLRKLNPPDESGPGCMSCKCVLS

Compound | HRAS /KRAS (HRAS wild-type protein; [3]) | NRAS /KRAS [1, 4] | IC50 [2] | HRAS /KRAS (HRAS wild-type protein; [5]) | NRAS /KRAS [1, 6] | HRAS /KRAS (HRAS wild-type protein; [7]) | NRAS /KRAS [1, 8] | IC50 ([2]; NCI-H441 cells, 4 days, CellTiter-Glo, read-out: NCl-H441 IC50)
CCO[C@@H]1C[C@H]2C(=O)NC3(CCC3)C(=O)N(C)[C@@H](C3CCCC3)C(=O)N(C)[C@H](C(=O)N(C)C)CC(=O)N(C)[C@@H](Cc3ccccc3)C(=O)N[C@@H]([C@@H](C)CC)C(=O)N(C)CC(=O)N(C)[C@H]3C/C=C\CCN(C3=O)[C@@H](Cc3ccc(C(F)(F)F)cc3)C(=O)N(C)CC(=O)N[C@@H](CCc3cc(F)c(C(F)(F)F)c(F)c3)C(=O)N2C1 [PP1116] | A (a compound having 10 or more and less than 20 is denoted as A) | A (a compound having 10 or more and less than 20 is denoted as A) | 19.8 nM | – | – | – | – | –
CCO[C@@H]1C[C@H]2C(=O)NC3(CC(C)(C)C3)C(=O)N(C)[C@@H](C3CCCC3)C(=O)N3CCC[C@@H]3CC(=O)N(C)[C@@H](CC3CC3)C(=O)N[C@@H]([C@@H](C)CC)C(=O)N(C)CC(=O)N(C)[C@H]3C/C=C\CCN(C3=O)[C@@H](Cc3ccc(C(F)(F)F)cc3)C(=O)N(C)CC(=O)N[C@@H](CCc3cc(F)c(C(F)(F)F)c(F)c3)C(=O)N2C1 [PP1611] | – | – | 28 nM | B (a compound having 3 or more and less than 10 is denoted as B) | B (a compound having 3 or more and less than 10 is denoted as B) | – | – | –
CCCN(C)C(=O)[C@@H]1CC(=O)N(C)[C@@H](CC(F)(F)F)C(=O)N[C@@H]([C@@H](C)CC)C(=O)N(C)CC(=O)N(C)[C@H]2C/C=C\CCN(C2=O)[C@@H](Cc2ccc(C(F)(F)F)cc2)C(=O)N(C)CC(=O)N[C@@H](CCc2cc(F)c(C(F)(F)F)c(F)c2)C(=O)N2C[C@H](OCC)C[C@H]2C(=O)NC2(CC(F)(F)C2)C(=O)N(C)[C@@H](C2CCCC2)C(=O)N1C [PP1734] | – | – | 4.4 nM | A (a compound having 10 or more and less than 20 is denoted as A) | A (a compound having 10 or more and less than 20 is denoted as A) | – | – | –
CCO[C@@H]1C[C@H]2C(=O)NC3(CCC3)C(=O)N(C)[C@@H](C3CCCC3)C(=O)N(C)[C@H](C(=O)N(C)CC)CC(=O)N(C)[C@@H](CC)C(=O)N[C@@H]([C@@H](C)CC)C(=O)N(C)CC(=O)N(C)[C@H]3C/C=C\CCN(C3=O)[C@@H](Cc3ccc(C)cc3)C(=O)N(C)CC(=O)N[C@@H](CCc3ccc(C(F)(F)F)c(OC)c3)C(=O)N2C1 [PP1869] | – | – | 36.4 nM | A (a compound having 10 or more and less than 20 is denoted as A) | A (a compound having 10 or more and less than 20 is denoted as A) | – | – | –
CC[C@H](C)[C@@H]1NC(=O)[C@@H]2CCCCc3ccc(cc3)C[C@@H](C(=O)N(C)CC(=O)N[C@@H](CCc3ccc(C(F)(F)F)c(OC)c3)C(=O)N3C[C@H](OC4CCCC4)C[C@H]3C(=O)NC3(CC(C)(C)C3)C(=O)N(C)[C@@H](C3CCCC3)C(=O)N(C)[C@H](C(=O)N(C)C)CC(=O)N2C)N2CC/C=C\C[C@@H](C2=O)N(C)C(=O)CN(C)C1=O [PP3080] | B (a compound having 3 or more and less than 10 is denoted as B) | A (a compound having 10 or more and less than 20 is denoted as A) | 4.3 nM | – | – | – | – | –
CC[C@H](C)[C@@H]1NC(=O)[C@@H]2CCCCCCc3ccc(cc3)C[C@@H](C(=O)N(C)CC(=O)N[C@@H](CCc3ccc(C(F)(F)F)c(OC)c3)C(=O)N3CC4(CC4)C[C@H]3C(=O)NC3(CC(C)(C)C3)C(=O)N(C)[C@@H](C3CCCC3)C(=O)N(C)[C@H](C(=O)N(C)C)CC(=O)N2C)N2CC/C=C\C[C@@H](C2=O)N(C)C(=O)CN(C)C1=O [PP3069] | B (a compound having 3 or more and less than 10 is denoted as B) | A (a compound having 10 or more and less than 20 is denoted as A) | 2.1 nM | – | – | – | – | –
CCCN1C(=O)CN(C)C(=O)CN(C)C(=O)[C@H]([C@@H](C)CC)NC(=O)[C@H](CC(C)C)N(C)C(=O)C[C@@H](C(=O)N(C)C)NC(=O)[C@H](C2CCCC2)N(C)C(=O)C2(CCCC2)NC(=O)[C@@H]2CCCN2C(=O)[C@H](CCc2ccc(C(F)(F)F)c(Cl)c2)NC(=O)CN(C)C(=O)[C@@H]1Cc1ccc(C(F)(F)F)cc1 [PP0355] ([NMeL]I[Sar][Sar][NPrPhe(4-CF3)][Sar][hPhe(3-Cl-4-CF3)]P[Ac5c][NMeGly(cPent)]D-NMe2; lactam N-11) | B (a compound having 3 or more and less than 10 is denoted as B) | B (a compound having 3 or more and less than 10 is denoted as B) | 48.2 nM | – | – | – | – | –
CCO[C@@H]1C[C@H]2C(=O)NC3(CC(C)(C)C3)C(=O)N(C)[C@@H](C(CC)CC)C(=O)N(C)[C@H](CC)CC(=O)N(C)[C@@H](CC3CC3)C(=O)N[C@@H]([C@@H](C)CC)C(=O)N(C)CC(=O)N(C)[C@H]3C/C=C\CCN(C3=O)[C@@H](Cc3ccc(C(F)(F)F)cc3)C(=O)N(C)CC(=O)N[C@@H](CCc3cc(F)c(C(F)(F)F)c(F)c3)C(=O)N2C1 [PP1628] | – | – | 150 nM | A (a compound having 10 or more and less than 20 is denoted as A) | A (a compound having 10 or more and less than 20 is denoted as A) | – | – | –
CCO[C@@H]1C[C@H]2C(=O)NC3(CC(C)(C)C3)C(=O)N(C)[C@@H](C(CC)CC)C(=O)N(C)[C@H](C(=O)N(C)C)CC(=O)N(C)[C@H]3CCC/C=C/c4ccc(cc4)C[C@@H](C(=O)N(C)CC(=O)N[C@@H](CCc4cc(F)c(C(F)(F)F)c(F)c4)C(=O)N2C1)N1CC/C=C\C[C@@H](C1=O)N(C)C(=O)CN(C)C(=O)[C@H]([C@@H](C)CC)NC3=O [PP2575] | A (a compound having 10 or more and less than 20 is denoted as A) | A (a compound having 10 or more and less than 20 is denoted as A) | 4.1 nM | – | – | – | – | –
CCO[C@@H]1C[C@H]2C(=O)NC3(CCC3)C(=O)N(C)[C@@H](C3CCCC3)C(=O)N(C)[C@H](C(=O)N(C)C)CC(=O)N(C)[C@@H](CC3CCC3)C(=O)N[C@@H]([C@@H](C)CC)C(=O)N(C)CC(=O)N(C)[C@H]3CCCCN(C3=O)[C@@H](Cc3ccc(C(F)(F)F)cc3)C(=O)N(C)CC(=O)N[C@@H](CCc3cc(F)c(C(F)(F)F)c(F)c3)C(=O)N2C1 [PP0698] | – | – | 4.1 nM | – | – | C (A compound having a KD ratio of 0.1 or more and less than 3 is denoted as C) | C (A compound having a KD ratio of 0.1 or more and less than 3 is denoted as C) | –
CCO[C@@H]1C[C@H]2C(=O)NC3(CCC3)C(=O)N(C)[C@@H](C3CCCC3)C(=O)N3CCC[C@@H]3CC(=O)N(C)[C@@H](CC3CC3)C(=O)N[C@@H]([C@@H](C)CC)C(=O)N(C)CC(=O)N(C)[C@H]3C/C=C\CCN(C3=O)[C@@H](Cc3ccc(C(F)(F)F)cc3)C(=O)N(C)CC(=O)N[C@@H](CCc3cc(F)c(C(F)(F)F)c(F)c3)C(=O)N2C1 [PP1613] | – | – | 14.7 nM | B (a compound having 3 or more and less than 10 is denoted as B) | B (a compound having 3 or more and less than 10 is denoted as B) | – | – | –
CCC[C@H]1C(=O)N[C@@H]([C@@H](C)CC)C(=O)N(C)CC(=O)N(C)[C@H]2C/C=C\CCN(C2=O)[C@@H](Cc2ccc(C(F)(F)F)cc2)C(=O)N(C)CC(=O)N[C@@H](CCc2ccc(CC)c(OC)c2)C(=O)N2C[C@H](OCC)C[C@H]2C(=O)NC2(CC(C)(C)C2)C(=O)N(C)[C@@H](C2CCCC2)C(=O)N(C)[C@H](C(=O)N(C)C)CC(=O)N1C [PP2869] | A (a compound having 10 or more and less than 20 is denoted as A) | A (a compound having 10 or more and less than 20 is denoted as A) | – | – | – | – | – | 37.6 nM
CCCN1C(=O)CN(C)C(=O)CN(C)C(=O)[C@H]([C@@H](C)CC)NC(=O)[C@H](CC(C)C)N(C)C(=O)C[C@@H](C(=O)N2CCOCC2)N(C)C(=O)[C@H](C2CCCC2)N(C)C(=O)C2(CCC2)NC(=O)[C@H](C)N(C)C(=O)[C@H](CCc2ccc(C(F)(F)F)c(Cl)c2)NC(=O)CN(C)C(=O)[C@@H]1Cc1ccc(C(F)(F)F)cc1 [PP1916] ([NMeL]I[Sar][Sar][NPrPhe(4-CF3)][Sar][hPhe(3-Cl-4-CF3)][NMeA][Ac4c][NMeGly(cPent)][NMeD]-Morpholide; lactam N-11) | – | – | 16.8 nM | – | – | C (A compound having a KD ratio of 0.1 or more and less than 3 is denoted as C) | B (a compound having 3 or more and less than 10 is denoted as B) | –
CC[C@H](C)[C@@H]1NC(=O)[C@H](CC(C)C)N(C)C(=O)C[C@@H](C(=O)N2CCOCC2)N(C)C(=O)[C@H](C2CCCC2)N(C)C(=O)C2(CCCC2)NC(=O)[C@@H]2CC(F)(F)CN2C(=O)[C@H](CCc2ccc(C(F)(F)F)c(Cl)c2)NC(=O)CN(C)C(=O)[C@H](Cc2ccc(F)cc2)N2CCCCC[C@@H](C2=O)N(C)C(=O)CN(C)C1=O [PP0966] | B (a compound having 3 or more and less than 10 is denoted as B) | B (a compound having 3 or more and less than 10 is denoted as B) | 34.6 nM | – | – | – | – | –
CCO[C@@H]1C[C@H]2C(=O)NC3(CCC3)C(=O)N(C)[C@@H](C3CCCC3)C(=O)N(CC)[C@H](C(=O)N3CCOCC3)CC(=O)N(C)[C@@H](Cc3ccccc3)C(=O)N[C@@H]([C@@H](C)CC)C(=O)N(C)CC(=O)N(C)[C@H]3CCCCCN(C3=O)[C@@H](Cc3ccc(C(F)(F)F)cc3)C(=O)N(C)CC(=O)N[C@@H](CCc3cc(F)c(C(F)(F)F)c(F)c3)C(=O)N2C1 [PP0950] | B (a compound having 3 or more and less than 10 is denoted as B) | A (a compound having 10 or more and less than 20 is denoted as A) | 958 nM | – | – | – | – | –
